Biological target: T1, EphB4 (Homo sapiens, UniProt P54760)
T1 construct: to generate full-length EphB4 containing a Myc-His tag at the C-terminus; expressed in transfected cells; EphB4-CHO)
T1 sequence (P54760 16-987): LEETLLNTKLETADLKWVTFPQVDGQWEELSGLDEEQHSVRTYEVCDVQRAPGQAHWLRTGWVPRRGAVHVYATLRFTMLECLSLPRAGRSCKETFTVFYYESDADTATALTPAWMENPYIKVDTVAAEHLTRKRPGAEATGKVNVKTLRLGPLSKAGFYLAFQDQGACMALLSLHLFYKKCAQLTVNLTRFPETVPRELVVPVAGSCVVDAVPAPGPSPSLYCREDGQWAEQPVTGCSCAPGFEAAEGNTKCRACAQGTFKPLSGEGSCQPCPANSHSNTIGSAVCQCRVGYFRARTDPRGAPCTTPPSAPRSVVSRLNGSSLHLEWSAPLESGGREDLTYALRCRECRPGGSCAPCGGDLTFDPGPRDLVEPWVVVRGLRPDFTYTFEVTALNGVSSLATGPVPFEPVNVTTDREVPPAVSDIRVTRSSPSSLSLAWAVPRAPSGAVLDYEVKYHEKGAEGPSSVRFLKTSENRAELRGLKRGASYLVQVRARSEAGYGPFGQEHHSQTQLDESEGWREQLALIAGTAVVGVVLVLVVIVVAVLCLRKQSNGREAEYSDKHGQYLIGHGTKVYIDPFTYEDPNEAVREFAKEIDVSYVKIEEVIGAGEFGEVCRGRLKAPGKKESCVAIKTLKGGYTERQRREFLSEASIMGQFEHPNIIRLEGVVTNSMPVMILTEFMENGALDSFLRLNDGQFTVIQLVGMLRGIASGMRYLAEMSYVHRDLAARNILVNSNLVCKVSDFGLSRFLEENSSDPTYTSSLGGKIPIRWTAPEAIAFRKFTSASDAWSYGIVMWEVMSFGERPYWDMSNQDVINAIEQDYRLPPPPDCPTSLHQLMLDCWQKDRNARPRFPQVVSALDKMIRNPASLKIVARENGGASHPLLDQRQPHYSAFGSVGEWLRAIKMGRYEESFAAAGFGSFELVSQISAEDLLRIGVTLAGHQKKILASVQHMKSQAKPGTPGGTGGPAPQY
Assay: In vitro EphB4 cell assay (EphB4 phosphorylation in EphB4-CHO cells, sandwich ELISA)
Type: cell-based
Conditions: stimulated with clustered ephrin-B2, read-out: IC50 in assay B
Method: B) In vitro EphB4 Cell Assay
The assay identifies inhibitors of cellular EphB4 by measuring a decrease in phosphorylation of EphB4 following treatment of cells with compound. The endpoint assay used a sandwich ELISA to detect EphB4 phosphorylation status. Briefly, Myc-tagged EphB4 from treated cell lysate was captured on the ELISA plate via an anti-c-Myc antibody. The phosphorylation status of captured EphB4 was then measured using a generic phosphotyrosine antibody conjugated to HRP via a colourimetric output catalysed by HRP, with level of EphB4 phosphorylation directly proportional to the colour intensity. Absorbance was measured spectrophotometrically at 450 nm.
Full length human EphB4 (Swiss-Prot Acc. No. P54760) was cloned using standard techniques from cDNA prepared from HUVEC using RT-PCR. The cDNA fragment was then sub-cloned into a pcDNA3.1 expression vector containing a Myc-His epitope tag to generate full-length EphB4 containing a Myc-His tag at the C-terminus (Invitrogen Ltd. Paisley, UK). CHO-K^1 cells (LGC Promochem, Teddington, Middlesex, UK, Catalogue No. CCL-61) were maintained in HAM's F12 medium (Sigma-Aldrich Company Ltd, Gillingham, Dorset SP8 4XT, Catalogue No. N4888) containing 10% heat-inactivated foetal calf serum (PAA lab GmbH, Pasching, Austria Catalogue No. PAA-A15-043) and 1% glutamax-1 (Invitrogen Ltd., Catalogue No. 35050-038) at 37° C. with 5% CO2. […]

IC50: 26 nM
SMILES: c1cc(Nc2ccnc(Nc3cc(N4CCOCC4)nc(N4CCOCC4)c3)n2)c2cn[nH]c2c1 [Example 3, N2-(2,6-dimorpholinopyridin-4-yl)-N4-(1H-indazol-4-yl)pyrimidine-2,4-diamine]
